Test results reported in patent publication US20060189591A1, “Five-membered heterocyclic derivative” (DAIICHI PHARMACEUTICAL CO., LTD., priority 2003, published 2006).
Structures can show the parent of a compound that is named as a salt. Where two headings read alike, the source gives them in different places.

What was measured:
[1] = tested on: collagen-induced platelet aggregation; settings: cited from earlier work
Cyclooxygenase-2 (COX-2) = target: T1, Cyclooxygenase-2 (COX-2) (Homo sapiens, UniProt P35354); assay: COX Inhibitor Screening Assay Kit, COX-2; type: biochemical; settings: 50 μM compound; read-out: Inhibitory effect against COX-2 at 50 μM (% inhibition)
T1 construct: purchased Cayman Chemical Company 560121
T1 sequence (P35354 18-604): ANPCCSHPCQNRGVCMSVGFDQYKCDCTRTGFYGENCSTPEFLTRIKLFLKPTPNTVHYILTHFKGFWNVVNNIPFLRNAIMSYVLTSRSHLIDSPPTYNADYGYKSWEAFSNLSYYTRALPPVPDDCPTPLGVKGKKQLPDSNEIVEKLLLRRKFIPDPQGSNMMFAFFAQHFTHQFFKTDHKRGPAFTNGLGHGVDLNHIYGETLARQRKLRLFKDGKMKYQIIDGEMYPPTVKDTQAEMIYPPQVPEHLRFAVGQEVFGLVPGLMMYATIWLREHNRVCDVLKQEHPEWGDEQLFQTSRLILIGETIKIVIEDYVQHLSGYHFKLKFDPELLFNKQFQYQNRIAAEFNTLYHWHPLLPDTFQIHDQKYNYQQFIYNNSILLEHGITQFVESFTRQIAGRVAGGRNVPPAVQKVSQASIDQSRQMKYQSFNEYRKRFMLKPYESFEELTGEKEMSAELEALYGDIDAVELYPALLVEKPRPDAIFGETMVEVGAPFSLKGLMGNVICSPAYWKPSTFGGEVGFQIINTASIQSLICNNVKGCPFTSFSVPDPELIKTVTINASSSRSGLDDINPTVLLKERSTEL
Method: (§1) Inhibitory Effects on Cyclooxygenase-1 (COX-1) and Cyclooxygenase-2 (COX-2)
(§2) Inhibitory activity against COX-1 and COX-2 of the compounds produced in the Examples was measured by use of a COX Inhibitor Screening Assay Kit (product of Cayman Chemical Company, Catalog Nos. 560101 and 560121).
(§3) Before starting the measurement, reaction buffer, heme, arachidonic acid, SnCl2, EIA buffer, washing buffer, prostaglandin (PG) screening EIA standard, PG screening acetylcholine esterase (AchE), tracer (chromogenic enzyme […] conjugate), and PG screening EIA antiserum were prepared ready for use.
(§4) (1) Production of PGF2α in the presence of COX-1 or COX-2
(§5) A reaction mixture containing the compound of the Examples (50 μM) and COX-1 or COX-2 was allowed to stand at 37° C. for 10 minutes. Arachidonic acid ([…]) was added thereto, and the resultant mixture was further allowed to stand at 37° C. for 2 minutes. 1N-Hydrochloric acid (50 μL) was added to the reaction mixture, to thereby stop the reaction. SnCl2 solution (100 μL) was added thereto, and the resultant mixture was allowed to stand at room temperature for 5 minutes.
(§6) (2) Quantitative Determination of PGF2α using ELISA
(§7) Antiserum (rabbit anti-PGF2α antibody, 50 μL) was added to the wells of 96 well plate that had been coated with mouse anti-rabbit IgG. A solution of PGF2α-containing mixture obtained above (2000-fold diluted, 50 μL) and AchE tracer (50 μL) were added to the well in this order, and the mixture was allowed to stand at room temperature for 18 hours. The wells were washed 5 times with the washing buffer to remove an excessive AchE tracer, and Ellman reagent (200 μL) was added. After leaving the plate in a dark room for 60 minutes, absorbance was measured at 405 nm.
(§8) (3) Calculation of Inhibitory Activity of the Compound of the Examples
(§9) A calibration curve was obtained by use of the PG screening EIA standard, and the production amount of PGF2α was determined from the absorbance above. Percent inhibition against COX-1 or COX-2 at 50 μM of the compound of the Examples was calculated.

Cyclooxygenase-1 (COX-1) = target: T2, Cyclooxygenase-1 (COX-1) (Ovis aries, UniProt P05979); assay: COX Inhibitor Screening Assay Kit, COX-1; type: biochemical; settings: 50 μM compound; read-out: Inhibitory effect against COX-1 at 50 μM (% inhibition)
T2 construct: purchased Cayman Chemical Company 560101
T2 sequence (P05979 25-600): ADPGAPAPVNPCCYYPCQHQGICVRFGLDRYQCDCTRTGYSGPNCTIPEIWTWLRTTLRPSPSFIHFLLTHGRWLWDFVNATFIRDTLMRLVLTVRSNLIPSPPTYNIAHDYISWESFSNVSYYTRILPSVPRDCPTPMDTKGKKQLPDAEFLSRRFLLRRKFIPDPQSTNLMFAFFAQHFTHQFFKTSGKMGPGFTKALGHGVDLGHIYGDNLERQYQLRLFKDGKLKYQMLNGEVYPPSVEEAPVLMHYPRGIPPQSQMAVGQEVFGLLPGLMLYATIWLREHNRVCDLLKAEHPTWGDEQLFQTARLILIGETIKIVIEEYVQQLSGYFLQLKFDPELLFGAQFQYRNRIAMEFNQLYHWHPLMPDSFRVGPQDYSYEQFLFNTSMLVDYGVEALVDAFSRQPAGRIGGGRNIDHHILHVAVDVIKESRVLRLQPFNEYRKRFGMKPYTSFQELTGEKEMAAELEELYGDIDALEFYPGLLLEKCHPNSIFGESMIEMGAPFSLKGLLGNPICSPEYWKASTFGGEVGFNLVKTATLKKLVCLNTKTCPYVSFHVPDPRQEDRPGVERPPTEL
Method: as §1, §2, §3, §4, §5, §6, §7, §8, §9

[2] = tested on: collagen-induced platelet aggregation; assay: Inhibitory activity for platelet aggregation (collagen-induced, human platelet rich plasma); type: cell-based; settings: human PRP, read-out: Inhibition of collagen-induced platelet aggregation, IC50
Method: Inhibitory Activity for Platelet Aggregation
Human blood was collected in the presence of 3.13% sodium citrate as an anticoagulant in a volume 1/10 the blood volume. The collected blood was centrifuged at 180×g for 10 minutes so as to separate the upper layer; i.e., platelet rich plasma (PRP) from the blood. The remaining lower layer was further centrifuged at 1,600×g for 10 minutes, and platelet poor plasma ([…]); i.e., the thus-obtained upper layer, was collected. A solution (1 μL) of the compound of the Examples was added to PRP (200 μL), and the mixture was allowed to stand at 37° C. for 2 minutes. Subsequently, collagen (2 μL) was added to the resultant mixture so as to induce platelet aggregation. Percentage of platelet aggregation was measured using PAM-12C (SSR Engineering). Optical transmittance of PPP was employed as the value reflecting the state in which 100% aggregation occurred. Percent of platelet aggregation values of PRP were determined at a series of concentrations of each Example compound and IC50 of each compound was calculated.

COX = settings: background art; cited from earlier work

SMILES	inhibition at 50 µM (Cyclooxygenase-2 (COX-2)) [%]	inhibition at 50 µM (Cyclooxygenase-1 (COX-1)) [%]	IC50 [2] [nM]	other results
CS(=O)(=O)c1ccc(-c2cc(C#N)nn2-c2ccc(F)cc2)cc1 [Compound (A)]				IC50 ([1]; prior-art compound, background art, read-out: IC50 value against collagen-induced platelet aggregation): 5300 nM
COc1ccc(-c2nc(C(=O)N3CCN(C)CC3)cn2-c2ccc(F)cc2)cn1 [Example 6, 1-[1-(4-Fluorophenyl)-2-(6-methoxy-3-pyridyl)-1H-imidazole-4-carbonyl]-4-methylpiperazine]	23.4	28.4	330	
CN1CCN(C(=O)c2nc(-c3ccccc3)c(-c3ccccc3)o2)CC1 [Example 25, 1-(4,5-diphenyloxazole-2-carbonyl)-4-methylpiperazine]	-8.7	3.1	710	
Cc1ccc(-n2cc(C(=O)N3CCN(C)C(=O)C3)nc2-c2ccc(C)nc2)cc1 [Example 32, 1-[1-(4-Methylphenyl)-2-(6-methyl-3-pyridyl)-1H-imidazole-4-carbonyl]-4-methyl-3-oxopiperazine]	-2.2	5.6	410	
COc1ccc(-n2nc(C(=O)N3CCN(C)CC3)nc2-c2ccc(C)cc2)cn1 [Example 37, 1-[1-(6-Methoxy-3-pyridyl)-5-(4-methylphenyl)-1H-1,2,4-triazole-3-carbonyl]-4-methylpiperazine hydrochloride]	-0.8	-3.2	270	
COc1ccc(-c2nc(C(=O)N3CCN(C)CC3)nn2-c2ccc(C)cc2)cn1 [Example 38, 1-[5-(6-Methoxy-3-pyridyl)-1-(4-methylphenyl)-1H-1,2,4-triazole-3-carbonyl]-4-methylpiperazine hydrochloride]	10.7	3.5	320	
COc1ccc(-c2nc(C(=O)N3CCC(F)(F)CC3)cn2-c2ccccn2)cn1 [Example 63, 1-[2-(6-Methoxy-3-pyridyl)-1-(2-pyridyl)-1H-imidazole-4-carbonyl]-4,4-difluoropiperidine]	7.5	3.4	20	
COc1ccc(-c2nc(C(=O)N3CCC(F)CC3)cn2-c2ccccn2)cn1 [Example 64, 1-[2-(6-Methoxy-3-pyridyl)-1-(2-pyridyl)-1H-imidazole-4-carbonyl]-4-fluoropiperidine]	4.5	-1.4	60	
COc1ccc(-c2nc(C(=O)N3CCC(OC)CC3)cn2-c2ccccn2)cn1 [Example 65, 1-[2-(6-Methoxy-3-pyridyl)-1-(2-pyridyl)-1H-imidazole-4-carbonyl]-4-methoxypiperidine]			120	
COc1ccc(-n2nc(C(=O)N3CCN(C)CC3)nc2-c2ccccn2)cn1 [Example 66, 1-[1-(6-Methoxy-3-pyridyl)-5-(2-pyridyl)-1H-1,2,4-triazole-3-carbonyl]-4-methylpiperazine]			700	
COc1ccc(-n2nc(C(=O)N3CCC(F)(F)CC3)nc2-c2ccc(C#N)cn2)cn1 [Example 67, 1-[5-(5-Cyano-2-pyridyl)-1-(6-methoxy-3-pyridyl)-1H-1,2,4-triazole-3-carbonyl]-4,4-difluoropiperidine]			220	
COc1ccc(-n2nc(C(=O)N3CCC(F)(F)CC3)nc2-c2ccc(F)cn2)cn1 [Example 71, 1-[5-(5-Fluoro-2-pyridyl)-1-(6-methoxy-3-pyridyl)-1H-1,2,4-triazole-3-carbonyl]-4,4-difluoropiperidine]		35.2	190	
COc1ccc(-c2nc(C(=O)N3CCC[C@@H](F)C3)cn2-c2ccccn2)cn1 [Example 72, (3R)-1-[2-(6-Methoxy-3-pyridyl)-1-(2-pyridyl)-1H-imidazole-4-carbonyl]-3-fluoropiperidine]		39	110	
COc1ccc(-n2nc(C(=O)N3CCC(F)(F)CC3)nc2-c2ccc(C)cn2)cn1 [Example 74, 1-[1-(6-Methoxy-3-pyridyl)-5-(5-methyl-2-pyridyl)-1H-1,2,4-triazole-3-carbonyl]-4,4-difluoropiperidine]		46.9	21	
COc1ccc(-c2cc(C(F)F)nn2-c2ccc(S(N)(=O)=O)cc2)cc1F [compound (B)]				platelet aggregation inhibitory activity ([1]; compared with inhibitory activity against COX-2): not so strong compared with its inhibitory activity against COX-2
COc1ccc(-c2nc(C(=O)N3CCN(C)CC3)sc2-c2ccc(OC)cc2)cc1 [thiazole derivative (C)]				COX inhibiting effect (COX): inhibits COX
